In US6090605A, “Purified porcine kidney L-fucose kinase” (The Board of Trustees of the University of Arkansas, priority 1998, dated 2000):

What was measured:
pig kidney fucokinase [1] = molecular target: T1, pig kidney fucokinase (Sus scrofa, UniProt I3LTC2); experiment: Inhibition of fucokinase by GDP-L-fucose and other GDP-linked sugars; assay type: biochemical
T1 construct: L-Fucokinase was purified to apparent homogeneity from the cytosolic fraction of pig kidney; from tissue; host or cells: pig kidney, cytosolic fraction
T1 sequence (I3LTC2 1-1083): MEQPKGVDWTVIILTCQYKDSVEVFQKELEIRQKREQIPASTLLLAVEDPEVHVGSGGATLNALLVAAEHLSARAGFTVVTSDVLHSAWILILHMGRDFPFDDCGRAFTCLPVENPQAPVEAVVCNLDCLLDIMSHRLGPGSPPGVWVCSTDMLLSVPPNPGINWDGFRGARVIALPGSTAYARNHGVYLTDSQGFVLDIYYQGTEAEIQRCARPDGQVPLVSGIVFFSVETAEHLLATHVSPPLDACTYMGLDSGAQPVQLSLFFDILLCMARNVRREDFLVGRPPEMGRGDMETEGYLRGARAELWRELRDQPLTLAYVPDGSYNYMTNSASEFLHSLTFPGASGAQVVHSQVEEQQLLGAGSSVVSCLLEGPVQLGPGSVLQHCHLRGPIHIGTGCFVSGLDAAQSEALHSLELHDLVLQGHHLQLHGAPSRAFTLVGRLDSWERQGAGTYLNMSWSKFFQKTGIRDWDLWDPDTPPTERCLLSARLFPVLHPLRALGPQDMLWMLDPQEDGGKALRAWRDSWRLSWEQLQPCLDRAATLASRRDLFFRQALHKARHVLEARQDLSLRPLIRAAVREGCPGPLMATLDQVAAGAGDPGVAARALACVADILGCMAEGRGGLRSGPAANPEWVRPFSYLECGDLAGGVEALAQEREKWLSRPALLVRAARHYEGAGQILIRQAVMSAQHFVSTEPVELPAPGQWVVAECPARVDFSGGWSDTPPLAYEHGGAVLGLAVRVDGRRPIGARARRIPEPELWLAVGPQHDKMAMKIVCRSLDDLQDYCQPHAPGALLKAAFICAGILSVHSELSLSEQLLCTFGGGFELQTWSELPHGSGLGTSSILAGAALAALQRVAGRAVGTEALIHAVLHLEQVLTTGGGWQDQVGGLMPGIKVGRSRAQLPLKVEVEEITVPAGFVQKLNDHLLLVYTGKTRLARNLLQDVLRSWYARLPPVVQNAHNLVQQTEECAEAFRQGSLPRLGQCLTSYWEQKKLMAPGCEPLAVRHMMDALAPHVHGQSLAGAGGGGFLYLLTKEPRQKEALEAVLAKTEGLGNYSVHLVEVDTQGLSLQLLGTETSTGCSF
Description: (§1) Fucokinase activity was assayed by measuring the production of L-fucose-1-Pfrom [^3 H]L-fucose and ATP. The incubation mixtures contained the following components (final concentrations) in a total volume of 150 μl: L-fucose, 0.1 mM; ATP, 5 mM; MgSO4, 5 mM; Tris-HCl buffer, pH 8.0, 65 mM; and various amounts of enzyme at the different stages of purification. Incubations were at 37° C. for 10 minutes, and reactions were terminated by heating the reaction mixtures in a boiling water bath for 1 minute. The incubation mixtures were then applied to a column of DE-52 contained in a Pasteur pipette, and the column was washed with at least 5 column volumes of 10 mM (NH4)HCO3 to remove the unbound material. The [^3 H]fucose-1-P was then eluted with 500 mM (NH4)HCO3. Aliquots of the eluates were assayed for their radioactive content by subjecting a portion to scintillation counting.
It can be seen that the amount of inhibition of fucokinase increased with increasing amounts of GDP-L-fucose, and the Ki for GDP-L-fucose was estimated to be about 10 μM.

pig kidney fucokinase [2] = molecular target: T1, pig kidney fucokinase; experiment: Specificity of fucokinase for phosphate donor (nucleotides); assay type: biochemical; conditions: nucleotide added at 1 mM as phosphate donor
Description: as §1
The specificity of the nucleoside triphosphate was also examined by testing the ability of a variety of nucleotides to serve as phosphate donors in the phosphorylation of [^3 H]L-fucose. […] In addition, no activity is observed with any nucleoside diphosphates or monophosphates.

[3] = molecular target: T2, pig kidney fucokinase (110 kDa band) (Sus scrofa, UniProt I3LTC2); experiment: Photoaffinity labeling of the fucokinase with 8-azido-ATP[32P]; assay type: binding; conditions: unlabeled ATP 0.3-1.2 mM; GTP, ITP 0.6 and 1.2 mM
T2 construct: L-Fucokinase was purified to apparent homogeneity from the cytosolic fraction of pig kidney; from tissue; host or cells: pig kidney, cytosolic fraction
T2 sequence (I3LTC2 1-1083): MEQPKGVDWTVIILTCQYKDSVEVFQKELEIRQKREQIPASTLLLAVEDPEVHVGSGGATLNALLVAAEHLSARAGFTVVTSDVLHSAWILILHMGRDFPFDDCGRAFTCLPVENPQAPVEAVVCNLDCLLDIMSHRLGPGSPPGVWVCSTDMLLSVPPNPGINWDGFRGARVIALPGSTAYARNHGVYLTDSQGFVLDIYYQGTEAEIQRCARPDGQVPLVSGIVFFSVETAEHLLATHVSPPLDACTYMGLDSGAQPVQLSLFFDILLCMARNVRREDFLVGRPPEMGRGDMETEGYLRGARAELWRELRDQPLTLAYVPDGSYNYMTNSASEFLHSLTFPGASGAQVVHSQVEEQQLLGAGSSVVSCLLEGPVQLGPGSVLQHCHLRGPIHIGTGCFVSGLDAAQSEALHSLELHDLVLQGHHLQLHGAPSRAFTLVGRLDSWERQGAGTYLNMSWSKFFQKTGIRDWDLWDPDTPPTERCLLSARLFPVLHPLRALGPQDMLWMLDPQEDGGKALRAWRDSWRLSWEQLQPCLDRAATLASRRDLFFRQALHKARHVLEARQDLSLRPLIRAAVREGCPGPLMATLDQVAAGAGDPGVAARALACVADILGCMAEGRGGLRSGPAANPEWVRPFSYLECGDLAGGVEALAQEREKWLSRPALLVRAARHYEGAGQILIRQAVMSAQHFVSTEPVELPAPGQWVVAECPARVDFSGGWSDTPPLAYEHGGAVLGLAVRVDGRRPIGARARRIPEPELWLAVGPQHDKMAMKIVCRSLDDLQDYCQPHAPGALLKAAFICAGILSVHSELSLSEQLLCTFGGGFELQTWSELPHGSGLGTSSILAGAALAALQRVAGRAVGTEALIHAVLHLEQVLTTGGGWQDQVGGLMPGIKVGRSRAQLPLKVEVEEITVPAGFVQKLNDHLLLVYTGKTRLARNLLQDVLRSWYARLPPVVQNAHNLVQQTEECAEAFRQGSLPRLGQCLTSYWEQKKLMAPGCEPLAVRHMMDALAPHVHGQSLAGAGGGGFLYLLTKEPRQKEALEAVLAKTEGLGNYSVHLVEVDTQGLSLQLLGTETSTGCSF
Description: The purified enzyme was incubated for 20 seconds with azido-ATP[^32 P], and the mixture was exposed to UV for 90 seconds. The reaction was stopped by adding loading buffer and the mixture subjected to SDS-PAGE. Radioactive bands were detected by exposure to film. Lanes are as follows: Lane 1, Probe+enzyme, but no UV; Lane 2, Probe+enzyme+UV; Lanes 3 through 6. Probe+enzyme+0.3, 0.6, 0.9, and 1.2 mM ATP+exposure to UV light; lanes 7 and 8, 0.6 and 1.2 mM GTP+probe+exposure to UV light: lanes 9 and 10, 0.6 and 1.2 mM ITP+probe+exposure to UV light. In lanes 11 and 12, the enzyme was incubated with N3 -GTP[^32 P ] and then exposed to UV light (lane 12) or not exposed to UV light (lane 11). Lane 13 is a control of enzyme+N3 -ATP[^32 P]+exposure to UV light.
Enzyme, at various stages of purity, was mixed with 8-azido-ATP[^32 P] in buffer, and allowed to incubate for 20 sec. in an ice bath. 8-Azido-ATP[^32 P] was prepared as previously described (16). After incubation, the reaction mixture was exposed to short wave UV light for about 90 sec. to activate the azido group, and the protein was subjected to SDS gel electrophoresis to separate the proteins. The gels were dried and exposed to film to locate the radioactive bands and were also stained with Coomassie blue to locate the various proteins. The specificity of the labeling was determined by examining the effect of various concentrations of unlabeled ATP or other nucleotides on the labeling of the protein by N3 -ATP[^32 P]. Various controls were also run, such as one in which exposure to UV was omitted.
Lanes 11-13 of FIG. 3 show the results of another experiment designed to determine whether 8-N3 -GTP[^32 P] could label the fucokinase. […] These experiments indicate that the fucokinase is quite specific for ATP.

[4] = tested on: pig liver L-fucokinase preparation; conditions: cited from earlier work
[5] = substrate: Nc1ncnc2c1ncn2[C@@H]1O[C@H](COP(=O)(O)OP(=O)(O)OP(=O)(O)O)[C@@H](O)[C@H]1O; experiment: Effect of substrate concentration on velocity (Lineweaver-Burke, Km); assay type: biochemical, pig; conditions: other: 5 mM Mg++ and 100 μM L-fucose; pH 8.0; 37.0 °C
Description: as §1
(§2) The effect of concentration of the substrates, L-fucose and ATP, on the velocity of the reaction was determined. The Km for L-fucose was determined at saturating concentrations of the other substrates, i.e., 5 mM ATP and 5 mM Mg^++. […] A similar experiment was performed with ATP. In this case, the reactions were done in the presence of 5 mM Mg^++ and 100 μM L-fucose. The Km for ATP was estimated to be 600 μM (data not shown).

[6] = substrate: C[C@H](O)[C@@H](O)[C@@H](O)[C@H](O)C=O; experiment: as above; assay type: biochemical, pig; conditions: other: 5 mM ATP and 5 mM Mg++; pH 8.0; 37.0 °C
Description: as §1, §2

C[C@@H]1O[C@H](OP(=O)(O)OP(=O)(O)OC[C@H]2O[C@@H](n3cnc4c(=O)[nH]c(N)nc43)[C@H](O)[C@@H]2O)[C@@H](O)[C@H](O)[C@@H]1O [GDP-L-fucose]
Ki (pig kidney fucokinase [1]; 100 μM [3H]fucose, 5 mM ATP, 5 mM Mg++, pH 8.0): ~10 µM

Nc1nc2c(ncn2[C@@H]2O[C@H](COP(=O)(O)OP(=O)(O)OP(=O)(O)O)[C@@H](O)[C@H]2O)c(=O)[nH]1 [GTP]
Specific Activity (pig kidney fucokinase [2]): 0.09 nmoles/mg protein/10 min
inhibition of labeling of the 110 kDa band by N3-ATP[32P] (in words) [3]: considerably less effective in inhibiting
use as phosphate donor (in words) [4]: could also use

O=c1[nH]cnc2c1ncn2[C@@H]1O[C@H](COP(=O)(O)OP(=O)(O)OP(=O)(O)O)[C@@H](O)[C@H]1O [ITP]
Specific Activity (pig kidney fucokinase [2]): 0.10 nmoles/mg protein/10 min
inhibition of labeling of the 110 kDa band by N3-ATP[32P] (in words) [3]: considerably less effective in inhibiting

C[C@@H]1O[C@H](OP(=O)(O)O)[C@@H](O)[C@H](O)[C@@H]1O [L-fucose-1-P]
inhibition of the fucokinase (in words) (pig kidney fucokinase [1]): did not inhibit

B1: pig kidney fucokinase (Sus scrofa) (protein)
chain: MEQPKGVDWTVIILTCQYKDSVEVFQKELEIRQKREQIPASTLLLAVEDPEVHVGSGGATLNALLVAAEHLSARAGFTVVTSDVLHSAWILILHMGRDFPFDDCGRAFTCLPVENPQAPVEAVVCNLDCLLDIMSHRLGPGSPPGVWVCSTDMLLSVPPNPGINWDGFRGARVIALPGSTAYARNHGVYLTDSQGFVLDIYYQGTEAEIQRCARPDGQVPLVSGIVFFSVETAEHLLATHVSPPLDACTYMGLDSGAQPVQLSLFFDILLCMARNVRREDFLVGRPPEMGRGDMETEGYLRGARAELWRELRDQPLTLAYVPDGSYNYMTNSASEFLHSLTFPGASGAQVVHSQVEEQQLLGAGSSVVSCLLEGPVQLGPGSVLQHCHLRGPIHIGTGCFVSGLDAAQSEALHSLELHDLVLQGHHLQLHGAPSRAFTLVGRLDSWERQGAGTYLNMSWSKFFQKTGIRDWDLWDPDTPPTERCLLSARLFPVLHPLRALGPQDMLWMLDPQEDGGKALRAWRDSWRLSWEQLQPCLDRAATLASRRDLFFRQALHKARHVLEARQDLSLRPLIRAAVREGCPGPLMATLDQVAAGAGDPGVAARALACVADILGCMAEGRGGLRSGPAANPEWVRPFSYLECGDLAGGVEALAQEREKWLSRPALLVRAARHYEGAGQILIRQAVMSAQHFVSTEPVELPAPGQWVVAECPARVDFSGGWSDTPPLAYEHGGAVLGLAVRVDGRRPIGARARRIPEPELWLAVGPQHDKMAMKIVCRSLDDLQDYCQPHAPGALLKAAFICAGILSVHSELSLSEQLLCTFGGGFELQTWSELPHGSGLGTSSILAGAALAALQRVAGRAVGTEALIHAVLHLEQVLTTGGGWQDQVGGLMPGIKVGRSRAQLPLKVEVEEITVPAGFVQKLNDHLLLVYTGKTRLARNLLQDVLRSWYARLPPVVQNAHNLVQQTEECAEAFRQGSLPRLGQCLTSYWEQKKLMAPGCEPLAVRHMMDALAPHVHGQSLAGAGGGGFLYLLTKEPRQKEALEAVLAKTEGLGNYSVHLVEVDTQGLSLQLLGTETSTGCSF
notes: L-Fucokinase was purified to apparent homogeneity from the cytosolic fraction of pig kidney; from tissue; host or cells: pig kidney, cytosolic fraction
Km [5]: 600 µM
Km [6]: 27 µM
